Assays:
isolated adipocytes = assay: Measurement of glucose uptake activity in isolated rat adipocytes (2-[14C]-deoxy-D-glucose); type: cell-based; details: Adipocyte, glucose uptake of insulin (100 nM) = 100%
Procedure: A male Wistar rat was decapitated and exsanguinated, and then a paratesticular adipose tissue was resected therefrom after laparotomy. The tissue was cut in a KRH (Krebs-Ringer HEPES: 130 mM NaCl, 4.7 mM KCl, 1.2 mM KH2PO4, 1.2 mM MgSO4, 1 mM CaCl2, 25 mM HEPES) containing a BSA (bovine serum albumin), a collagenase (type I) was added thereto, and the resultant was subjected to a digestive treatment for about 40 minutes to obtain isolated adipocytes. The buffer was replaced to remove the collagenase, and a 2% BSA/KRH solution was added thereto, whereby the adipocytes were floated again to obtain a adipocytes suspension.
The glucose uptake activity of a test substance compound was evaluated in accordance with Non-Patent Document 14: Simpson et al., Annual Review of Biochemistry, 55, 1059, (1986). Thus, 200 μl of the adipocytes suspension was dispensed into each polystyrene test tube, 100 μl of a solution containing the test substance compound was added thereto, and the test tube was shaken and incubated at 37° C. for 30 minutes. The glucose uptake activity was evaluated by measuring the amount of 2-[^14C(U)]-deoxy-D-glucose uptaken per unit time. Thus, the 2-[^14C(U)]-deoxy-D-glucose was added to the preincubated adipocytes suspension at the final concentration of 0.5 μCi/sample, and after 5 minutes, cytochalasin B was added thereto at the final concentration of 10 μM to stop the glucose uptake. Dinonyl phthalate was superposed over the solution, the resultant was centrifuged to separate the fat cells from the buffer, and the amount of the 2-[^14C(U)]-deoxy-D-glucose contained in the fat cell layer was measured by a liquid scintillation counter, whereby the uptaken glucose amount was determined. The glucose uptake of insulin (100 nM) was evaluated in the same manner and considered to be 100%, and thus the EC50 value of each compound was obtained.

Gβ1γ2-Myc = target: T1, Gβ1γ2-Myc (Homo sapiens, UniProt P62873); assay: Gβ binding ability using Gβ-expressing insect cell extract solution (PD10 method); details: binding strength Compound 1>Compound 3>Compound 6, FIG. 8
T1 construct: made in house; host or cells: Sf21 insect cells (baculovirus), unpurified Triton X-100 extract
Procedure: The PD10 method was carried out as follows. To a microtube were added 250 μl of an RBA buffer, 100 μl of an RBA buffer containing 0 or 500 μM of the unlabeled Compound 1, 100 μl of the above extract solution, and 50 μl of an RBA buffer containing 2.5 μM of the ^3H-labeled Compound 1 successively, and the resultant mixture was stirred and left at room temperature for 1 hour. The entire reaction solution (0.5 ml) was added to a PD10 column sufficiently substituted with the RBA buffer, 2 ml of the RBA buffer was passed through the PD10 column, and thereafter further eluate by 1.5 ml of the RBA buffer was collected as a high-molecular fraction containing the protein, 15 ml of a liquid scintillator was added thereto, and the amount of the ^3H-labeled Compound 1 contained in the high-molecular fraction was measured by a scintillation counter. The count of the sample added with the unlabeled Compound 1 at the final concentration of 100 μM was considered to correspond to the nonspecific binding, the difference between the nonspecific binding count and the count of the sample not added with the unlabeled Compound 1 was considered to correspond to the specific binding, and thus the amount of the binding protein contained in the extract solution was evaluated.
Using the frozen insect cell Sf21 expressing the Gβ1, Myc-Gγ2, and Gαi1-His prepared in Example 19 (8), 10^7 cells were melted and suspended in 1.3 ml of an RBA buffer containing 1% Triton X-100 (75 mM Tris-HCl, 12.5 mM MgCl2, 2 mM EDTA, pH 7.4). […]
The inhibitory activity against the binding of the ^3H-labeled Compound 1 to the Gβ1γ2-Myc was considered to correspond to the activity of the compounds for binding to the Gβ1γ2-Myc. Thus, the activity of each of Compounds 1, 3, and 6 for binding to the Gβ1γ2-Myc was measured using the above extract solution. The activity of the ^3H-labeled Compound 1 for binding to the protein contained in the extract solution was measured by the PD10 method described in Example 15 (1). […]

HLF cell membrane = assay: Binding assay of 3H-labeled Compound 1 using HLF cell membrane; parameters: species or system human; details: FIG. 4
Procedure: A cell membrane of a human liver-derived HLF cell was prepared as follows. HLF cells were approximately confluently cultured in a Dulbecco MEM medium containing 10% FCS in a cell culture dish having a diameter of 15 cm. The HLF cells cultured in 30 dishes were scraped by a cell scraper in the presence of an HMEE buffer (20 mM HEPES-KOH, 1 mM EDTA, 1 mM EGTA, and 2 mM MgCl2) to obtain about 30 ml of a cell suspension. The suspension was homogenized using a TEFLON (registered trademark) homogenizer (ice temperature, 1000 rpm, 15 stroke) and centrifuged at a low rate (1500 rpm, 5 minutes). […]
The binding assay of the ^3H-labeled Compound 1 on thus obtained cell membrane was carried out as follows. […] The filter plate was well washed with a TBS (20 mM Tris-HCl, 0.15 M NaCl, pH 7.4) containing 0.05% Twee-20 and sufficiently dried, 30 μl of a liquid scintillator (Microscinti 0, Packard) was added to the filter plate, and the ^3H count was measured by Topcount (Packard). […]
The inhibitory activity of each of the probe molecule compounds synthesized in Examples 2 and 7 to 10 against the binding of the ^3H-labeled Compound 1 to the HLF cell membrane was measured by the method described in Example 14 to confirm whether the probe compound could be bound to the binding protein like Compound 1. […]

[1] = tested on: Compound 6-induced Akt phosphorylation in differentiated 3T3L1 cell; assay: Inhibition of Compound 6-induced Akt phosphorylation in differentiated 3T3L1 adipocytes; type: cell-based; details: 15 minutes pretreatment, FIG. 12
Procedure: The inhibitory activity of the inhibitor TGX-115 specific to the phosphoinositide 3-kinase (PI3-kinase) β and δ against Compound 6-induced Akt phosphorylation was measured by using a differentiated 3T3L1 cell converted to a adipocyte as follows. […] The differentiated 3T3L1 cells were seeded in a Dulbecco MEM medium containing 10% FCS in a 96-well plate (Collagen type I coated plate, IWAKI, Product No. 4860-010) at a ratio of 4×10^4 cells/well, cultured at 37° C. for about 16 hours in the presence of 5% CO2 to achieve sufficient attachment, and the medium was removed by suction. […] Then, 10 μl of a 0.1% BSA/Dulbecco MEM medium containing 3 mM of Compound 6 was added thereto, and a treatment was carried out at 37° C. for 10 minutes in the presence of 5% CO2.

T1 sequence (P62873 whole entry): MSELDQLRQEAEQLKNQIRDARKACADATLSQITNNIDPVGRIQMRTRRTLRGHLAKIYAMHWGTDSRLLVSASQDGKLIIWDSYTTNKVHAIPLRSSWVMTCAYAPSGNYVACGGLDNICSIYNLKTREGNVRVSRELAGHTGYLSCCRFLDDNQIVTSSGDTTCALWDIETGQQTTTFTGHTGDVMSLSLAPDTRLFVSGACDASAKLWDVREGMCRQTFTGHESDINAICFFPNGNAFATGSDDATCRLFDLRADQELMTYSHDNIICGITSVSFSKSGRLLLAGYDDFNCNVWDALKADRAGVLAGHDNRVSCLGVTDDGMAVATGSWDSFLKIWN
T1 sequence (P59768 with tags, fused parts or gaps partner limits assumed): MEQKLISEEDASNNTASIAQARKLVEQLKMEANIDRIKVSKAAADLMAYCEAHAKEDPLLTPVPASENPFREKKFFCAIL

SMILES | EC50 (isolated adipocytes) | further results
COc1ccccc1[C@@H]1C2=C(CNC2=O)N[C@@H]2CCCC[C@H]2N1C(=O)CCc1nccs1 [Compound 3] | 14 nM | binding to Gβ1γ2-Myc (inhibition of 3H-labeled Compound 1 binding) (Gβ1γ2-Myc): could be bound to the Gβγ2-Myc
O=C1NCC2=C1[C@@H](c1csc3ccccc13)N(C(=O)CCc1ccccn1)[C@@H]1CCCC[C@H]1N2 [Compound 4] | 6 nM | 
O=C1NCC2=C1[C@@H](c1cccc3ccoc13)N(C(=O)C1CC1)[C@@H]1CCCC[C@H]1N2 [Compound 5] | 1000 nM | 
NCCOCCOc1ccccc1[C@@H]1C2=C(CNC2=O)N[C@@H]2CCCC[C@H]2N1C(=O)CCc1ccccn1 [Compound 7] |  | inhibitory activity against the binding of the 3H-labeled Compound 1 to the HLF cell membrane (HLF cell membrane): equal to Compound 2
Cc1ccccc1Oc1cccc2c(=O)cc(N3CCOCC3)[nH]c12 [TGX-115] |  | inhibition of Akt phosphorylation by Compound 6 [1]: clearly inhibited

— patent publication US9440980B2, “Remedy for diabetes” (EA Pharma Co., Ltd., priority 2007, dated 2016)
